Data from US20220204539A1, “CD73 INHIBITORS” (BioArdis LLC, priority 2019, published 2022).
pIC50: −log10 of the molar value.

Key:
[1] = target: T1, Cell surface CD73 of U87 MG human glioblastoma cells (Homo sapiens, UniProt P21589); assay: CD73 Cellular Assay; type: cell-based; conditions: 5000 cells per well, 30 μM AMP substrate, read-out: Potency (IC50, CD73 cellular assay)
T1 construct: Cell surface CD73 catalyzes the conversion of adenosine monophosphate (AMP) to adenosine and inorganic phosphate; endogenous in cells; host or cells: U87 MG human glioblastoma cells
T1 sequence (P21589 27-549): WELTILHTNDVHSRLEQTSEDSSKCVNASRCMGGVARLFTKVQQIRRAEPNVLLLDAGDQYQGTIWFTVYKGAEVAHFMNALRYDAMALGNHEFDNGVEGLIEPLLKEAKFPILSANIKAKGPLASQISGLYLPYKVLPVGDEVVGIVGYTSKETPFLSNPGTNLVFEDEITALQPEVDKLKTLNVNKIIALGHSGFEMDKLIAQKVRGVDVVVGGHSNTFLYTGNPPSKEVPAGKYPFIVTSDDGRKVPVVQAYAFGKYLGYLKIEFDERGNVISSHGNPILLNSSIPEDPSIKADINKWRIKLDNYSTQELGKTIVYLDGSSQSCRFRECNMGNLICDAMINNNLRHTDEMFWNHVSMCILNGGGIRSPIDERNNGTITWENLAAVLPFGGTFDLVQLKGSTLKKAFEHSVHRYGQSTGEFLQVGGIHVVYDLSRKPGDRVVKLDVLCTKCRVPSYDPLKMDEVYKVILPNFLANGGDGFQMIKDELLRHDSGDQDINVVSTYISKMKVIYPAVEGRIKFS
Outline: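 U87 MG cells (5000/well) preincubated with compound 30 min at 37 °C, 5% CO2, in HEPES-buffered saline pH 7.4 with 0.5% DMSO, then 30 μM AMP (final) for 50 min. Released phosphate in supernatant read colorimetrically at 635 nm; IC50 from four-parameter logistic fit versus cells-plus-substrate and cells-only controls.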

[2] = target: T2, Recombinant Human 5′-Nucleotidase (CD73) (Homo sapiens, UniProt P21589); assay: CD73 Enzyme Assay; type: biochemical; conditions: human CD73 0.5 nM, AMP 30 μM, PiColorLock phosphate detection; read-out: Potency (IC50, CD73 enzyme assay)
T2 construct: CHO derived CD73 (Trp27-Lys547), with a C-terminal 6-His tag; 6-His (C); purchased R&D 5795-EN; host or cells: CHO
T2 sequence (P21589 27-547): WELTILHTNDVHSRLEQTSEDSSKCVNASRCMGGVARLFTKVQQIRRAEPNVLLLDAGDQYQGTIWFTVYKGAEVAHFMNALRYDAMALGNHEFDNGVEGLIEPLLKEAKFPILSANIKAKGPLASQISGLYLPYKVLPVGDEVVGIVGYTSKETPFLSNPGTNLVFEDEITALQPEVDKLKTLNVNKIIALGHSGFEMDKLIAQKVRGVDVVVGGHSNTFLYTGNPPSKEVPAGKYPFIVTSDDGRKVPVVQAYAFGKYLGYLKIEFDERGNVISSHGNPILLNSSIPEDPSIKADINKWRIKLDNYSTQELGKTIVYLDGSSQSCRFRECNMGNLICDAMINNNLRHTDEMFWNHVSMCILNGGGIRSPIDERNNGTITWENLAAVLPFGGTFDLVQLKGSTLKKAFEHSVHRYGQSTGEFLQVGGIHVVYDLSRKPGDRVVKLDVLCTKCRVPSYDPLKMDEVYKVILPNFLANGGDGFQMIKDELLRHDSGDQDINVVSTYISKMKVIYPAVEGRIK
Outline: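 Human CD73 (CHO-derived Trp27-Lys547, His-tagged; 0.5 nM final) was preincubated with compound for 15 min at 25° C. in Tris pH 7.5 buffer with MgCl2. It then reacted with 30 μM AMP for 20 min at 37° C., and released phosphate was read by malachite green absorbance at 635 nm. IC50 came from four-parameter fits against enzyme and no-enzyme controls.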

Row | pIC50 [1] | pIC50 [2] | Compound
1 | 8.00 to 9.00 | > 8.00 | C[C@H](Nc1nc(Cl)nn2c([C@@H]3O[C@H](COP(=O)(O)CP(=O)(O)O)[C@@H](O)[C@H]3O)cnc12)c1cncc(F)c1 [Compound 33, (((((2R,3S,4R,5S)-5-(2-chloro-4-(((S)-1-(5-fluoropyridin-3-yl)ethyl)amino)imidazo[2,1-f][1,2,4]triazin-7-yl)-3,4-dihydroxytetrahydrofuran-2-yl)methoxyxhydroxy)phosphoryl)methyl)phosphonic acid]
2 | 8.00 to 9.00 | > 8.00 | C[C@@H](Nc1nc(Cl)nn2c([C@@H]3O[C@H](COP(=O)(O)CP(=O)(O)O)[C@@H](O)[C@H]3O)cnc12)c1ccccc1 [Compound 34, [({[(2R,3S,4R,5S)-5-(2-chloro-4-{[(1R)-1-phenylethyl]amino}imidazo[2,1-f][1,2,4]triazin-7-yl)-3,4-dihydroxyoxolan-2-yl]methoxy}(hydroxy)phosphoryl)methyl]phosphonic Acid]
3 | > 9.00 | > 8.00 | C[C@H](Nc1nc(Cl)nn2c([C@@H]3O[C@H](COP(=O)(O)CP(=O)(O)O)[C@@H](O)[C@H]3O)cnc12)c1ccccc1 [Compound 35, (((((2R,3S,4R,1S)-5-(2-chloro-4-(((S)-1-phenylethyl)amino)imidazo[2,1-f][1,2,4]triazin-7-yl)-3,4-dihydroxytetrahydrofuran-2-yl)methoxy)(hydroxy)phosphoryl)methyl)phosphonic Acid]
4 | > 9.00 | > 8.00 | C[C@H](Nc1nc(Cl)nn2c([C@@H]3O[C@H](COP(=O)(O)CP(=O)(O)O)[C@@H](O)[C@H]3O)cnc12)c1cccc(F)c1 [Compound 36, (((((2R,3S,4R,5S)-5-(2-chloro-4-(((S)-1-(3-fluorophenyl)ethyl)amino)imidazo[2,1-f][1,2,4]triazin-7-yl)-3,4-dihydroxytetrahydrofuran-2-yl)methoxy)(hydroxy)phosphoryl)methyl) phosphonic acid]
5 | > 9.00 | > 8.00 | C[C@H](Nc1nc(Cl)nn2c([C@@H]3O[C@H](COP(=O)(O)CP(=O)(O)O)[C@@H](O)[C@H]3O)cnc12)c1ccc(F)cc1 [Compound 37, (((((2R,3S,4R,1S)-5-(2-chloro-4-(((S)-1-(4-fluorophenyl)ethyl)amino)imidazo[2,1-f][1,2,4]triazin-7-yl)-3,4-dihydroxytetrahydrofuran-2-yl)methoxy)(hydroxy)phosphoryl)methyl)phosphonic Acid]
6 | > 9.00 | > 8.00 | CC(C)[C@@H]1CCCN1c1nc(Cl)nn2c([C@@H]3O[C@H](COP(=O)(O)CP(=O)(O)O)[C@@H](O)[C@H]3O)cnc12 [Compound 39, (((((2R,3S,4R,1S)-5-(2-chloro-4-((S)-2-isopropylpyrrolidin-1-yl)imidazo[2,1-f][1,2,4]triazin-7-yl)-3,4-dihydroxytetrahydrofuran-2-yl)methoxy)(hydroxy)phosphoryl)methyl)phosphonic acid]
7 | 8.00 to 9.00 | > 8.00 | O=P(O)(O)CP(=O)(O)OC[C@H]1O[C@@H](c2cnc3c(N4CCCC45CCCC5)nc(Cl)nn23)[C@H](O)[C@@H]1O [Compound 40, (((((2R,3S,4R,1S)-5-(2-chloro-4-(1-azaspiro[4.4]nonan-1-yl)imidazo[2,1-f][1,2,4]triazin-7-yl)-3,4-dihydroxytetrahydrofuran-2-yl)methoxy)(hydroxy)phosphoryl)methyl)phosphonic Acid]
8 | > 9.00 | > 8.00 | O=P(O)(O)CP(=O)(O)OC[C@H]1O[C@@H](c2cnc3c(N4CCCC45CCC5)nc(Cl)nn23)[C@H](O)[C@@H]1O [Compound 41, [({[(2R,3S,4R,5S)-5-(4-{5-azaspiro[3.4]octan-5-yl}-2-chloroimidazo[2,1-f][1,2,4]triazin-7-yl)-3,4-dihydroxyoxolan-2-yl]methoxy}(hydroxy)phosphoryl)methyl]phosphonic Acid]
9 | > 9.00 | > 8.00 | O=P(O)(O)CP(=O)(O)OC[C@H]1O[C@@H](c2cnc3c(N4CCOCC4)nc(Cl)nn23)[C@H](O)[C@@H]1O [Compound 42, (((((2R,3S,4R,5S)-5-(2-chloro-4-morpholinoimidazo[2,1-f][1,2,4]triazin-7-yl)-3,4-dihydroxytetrahydrofuran-2-yl)methoxyxhydroxy)phosphoryl)methyl)phosphonic acid]
10 | > 9.00 | > 8.00 | O=P(O)(O)CP(=O)(O)OC[C@H]1O[C@@H](c2cnc3c(N4CCCCC4)nc(Cl)nn23)[C@H](O)[C@@H]1O [Compound 43, (((((2R,3S,4R,1S)-5-(2-chloro-4-(piperidin-1-yl)imidazo[2,1-f][1,2,4]triazin-7-yl)-3,4-dihydroxytetrahydrofuran-2-yl)methoxy)(hydroxy)phosphoryl)methyl)phosphonic Acid]
11 | > 9.00 | > 8.00 | O=P(O)(O)CP(=O)(O)OC[C@H]1O[C@@H](c2cnc3c(N4CCC(F)(F)CC4)nc(Cl)nn23)[C@H](O)[C@@H]1O [Compound 44, (((((2R,3S,4R,1S)-5-(2-chloro-4-(4,4-difluoropiperidin-1-yl)imidazo[2,1-f][1,2,4]triazin-7-yl)-3,4-dihydroxytetrahydrofuran-2-yl)methoxy)(hydroxy)phosphoryl)methyl)phosphonic Acid]
12 | > 9.00 | > 8.00 | O=P(O)(O)CP(=O)(O)OC[C@H]1O[C@@H](c2cnc3c(N4CC5CC5C4)nc(Cl)nn23)[C@H](O)[C@@H]1O (stereo partly drawn) [Compound 45, [({[(2R,3S,4R,5S)-5-(4-{3-azabicyclo[3.1.0]hexan-3-yl}-2-chloroimidazo[2,1-f][1,2,4]triazin-7-yl)-3,4-dihydroxyoxolan-2-yl]methoxy}(hydroxy)phosphoryl)methyl]phosphonic Acid]
13 | > 9.00 | > 8.00 | O=P(O)(O)CP(=O)(O)OC[C@H]1O[C@@H](c2cnc3c(N4CCC(F)(F)C4)nc(Cl)nn23)[C@H](O)[C@@H]1O [Compound 46, [({[(2R,3S,4R,5S)-5-[2-chloro-4-(3,3-difluoropyrrolidin-1-yl)imidazo[2,1-f][1,2,4]triazin-7-yl]-3,4-dihydroxyoxolan-2-yl]methoxy}(hydroxy)phosphoryl)methyl]phosphonic Acid]
14 | 8.00 to 9.00 | > 8.00 | O=P(O)(O)CP(=O)(O)OC[C@H]1O[C@@H](c2cnc3c(NC4CCOCC4)nc(Cl)nn23)[C@H](O)[C@@H]1O [Compound 47, (((((2R,3S,4R,1S)-5-(2-chloro-4-((tetrahydro-2H-pyran-4-yl)amino)imidazo[2,1-f][1,2,4]triazin-7-yl)-3,4-dihydroxytetrahydrofuran-2-yl)methoxy)(hydroxy)phosphoryl)methyl)phosphonic Acid]
15 | 8.00 to 9.00 | > 8.00 | O=P(O)(O)CP(=O)(O)OC[C@H]1O[C@@H](c2cnc3c(NC4CCC(F)(F)CC4)nc(Cl)nn23)[C@H](O)[C@@H]1O [Compound 48, [({[(2R,3S,4R,5S)-5-{2-chloro-4-[(4,4-difluorocyclohexyl)amino]imidazo[2,1-f][1,2,4]triazin-7-yl}-3,4-dihydroxyoxolan-2-yl]methoxy}(hydroxy)phosphoryl)methyl]phosphonic Acid]
